These results are taken from patent EP0554025A2, “Fluorinated cyclobutyl purines and pyrimidines” (E.R. SQUIBB & SONS, INC., priority 1992, dated 1993).

Holding throughout (type): cell-based
Assay [1] concerns HSV-1 (herpes simplex virus type 1, strain Schooler). Put plainly: HSV-1 plaque reduction antiviral assay in WI-38 cell culture monolayers. The note with it: WI-38 cell monolayers, plaque reduction after 4 days incubation at 37°C, read-out: ID50 (μM) for the following viruses HSV-1. The protocol:
(§1) Assays were performed in cell culture systems to determine the concentrations of compounds that are effective in preventing several kinds of viral infections. HSV-1 (herpes simplex virus type 1, strain Schooler), HSV-2 (herpes simplex virus type 2, strain 186), VZV (varicella zoster virus, strain ELLEN), HCMV (human cytomegalovirus, strain AD 169). HSV-1, HSV-2, HCMV, and VZV antiviral assays: Virus was adsorbed to WI-38 cell culture monolayers in 6 cell culture plates (Costar, Cambridge, MA) for 1 hour prior to addition of maintenance medium containing duplicate dilutions of the test compound. Inhibition of plaque development was evaluated on fixed and stained monolayers after 4 days incubation at 37°C for HSV-1 and HSV-2 and after 6-7 days incubation at 37°C for HCMV and VZV. ID50 values were determined from the drug concentration which conferred at least a 50% plaque reduction compared to virus controls.

In assay [2] the test system is VZV (varicella zoster virus, strain ELLEN). As to the kind of experiment: VZV plaque reduction antiviral assay in WI-38 cell culture monolayers. The note with it: plaque reduction after 6-7 days incubation at 37°C, read-out: ID50 (μM) for the following viruses VZV. The protocol: as §1
Assay [3] has as its system HSV-2 (herpes simplex virus type 2, strain 186). As to the kind of experiment: HSV-2 plaque reduction antiviral assay in WI-38 cell culture monolayers. Particulars: WI-38 cell monolayers, plaque reduction after 4 days incubation at 37°C, read-out: ID50 (μM) for the following viruses HSV-2. The protocol:
as §1

For assay [4], the system named is HCMV (human cytomegalovirus, strain AD 169). Put plainly: HCMV plaque reduction antiviral assay in WI-38 cell culture monolayers. The note with it: plaque reduction after 6-7 days incubation at 37°C, read-out: ID50 (μM) for the following viruses HCMV. The protocol: as §1

Read-outs that look alike come from different tables or passages of the source.

As to `Nc1nc2c(ncn2C2CC(F)(CO)C2CO)c(=O)[nH]1` (stereo not drawn) [Product of Example 1, (1α,2β,3β)-2-Amino-9-[3-fluoro-2,3-bis(hydroxymethyl)cyclobutyl]-1,9-dihydro-6H-purin-6-one], the IC50 was 0.35 to 0.7 µM in assay [1] (Human alphaherpesvirus 1, 96 h); 1.1 µM in assay [2] (Human alphaherpesvirus 3, WI-38 cell monolayers); 0.35 to 0.7 µM in assay [3] (Human alphaherpesvirus 2, 96 h); 7 to 18 µM in assay [4] (Human betaherpesvirus 5, WI-38 cell monolayers).
As to `Nc1nc2c(ncn2[C@H]2C[C@@](F)(CO)[C@@H]2O)c(=O)[nH]1` [Product of Example 2, (1 α,2β,3β)-2-Amino-9-[3-fluoro-2-hydroxy-3-(hydroxymethyl)cyclobutyl]-1,9-dihydro-6H-purin-6-one], the IC50 is 37 to 93 µM in assay [1], 7 to 19 µM in assay [2] (WI-38 cell monolayers), 37 to 93 µM in assay [3] and 37 µM in assay [4] (WI-38 cell monolayers).
